In series [1] the target is T1, vanadium chloroperoxidase (CiVCPO) (Curvularia inaequalis, UniProt P49053).
T1 construct: gene CPO; His-trap purified CiVCPO expressed in E. coli BL21 DE3 (67 kDa)
T1 sequence (P49053 1-609): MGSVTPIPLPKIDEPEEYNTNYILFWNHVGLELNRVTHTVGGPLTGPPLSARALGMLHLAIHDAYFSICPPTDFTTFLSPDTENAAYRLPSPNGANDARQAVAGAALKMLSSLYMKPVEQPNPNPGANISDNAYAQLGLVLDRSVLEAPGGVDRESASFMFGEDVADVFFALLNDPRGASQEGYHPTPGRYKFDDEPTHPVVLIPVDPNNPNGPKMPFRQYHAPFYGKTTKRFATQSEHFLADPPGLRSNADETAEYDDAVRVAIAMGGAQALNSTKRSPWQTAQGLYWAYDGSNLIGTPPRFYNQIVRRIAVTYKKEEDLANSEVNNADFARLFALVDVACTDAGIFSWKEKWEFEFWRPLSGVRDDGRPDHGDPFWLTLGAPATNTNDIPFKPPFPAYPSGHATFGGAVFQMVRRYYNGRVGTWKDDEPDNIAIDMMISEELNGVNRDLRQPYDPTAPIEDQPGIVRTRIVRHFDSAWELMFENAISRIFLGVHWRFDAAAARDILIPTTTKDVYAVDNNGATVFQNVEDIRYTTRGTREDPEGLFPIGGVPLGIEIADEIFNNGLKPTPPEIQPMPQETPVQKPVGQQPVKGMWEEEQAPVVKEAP
As to the kind of experiment: fluorescence binding titration (quenching), tight-binding fit, pH […].

Substrate in series [2]: c1ccc(-c2cc3ccccc3[nH]2)cc1
Put plainly: purified protein. Particulars: vanadate pocket near the protein surface: Pro47, His222, Gln220, Asp292, Gly293, Asp390, Phe393, Pro396, Phe397 (docking/MD only).

This note sets out measurements from article PMC10278073, “How Is Substrate Halogenation Triggered by the Vanadium Haloperoxidase from Curvularia inaequalis?” (ACS Catalysis, 2023).

`Cn1c(-c2ccccc2)cc2ccccc21` [methylphenylindole]: the Kd – broadly, the concentration at which binding is half-saturated – in series [1] was 660 ± 50 nM.

B1: vanadium chloroperoxidase (CiVCPO) (Curvularia inaequalis) (protein)
chain: T1 sequence (P49053 1-609)
In the case of B1, in series [2], the Km (commonly the substrate concentration at which the rate is half of its maximum) was found to be 1.52 µM.
